± gives the expanded uncertainty stated by the source.

For the data set the following is noted: 101.33 kPa, Liquid, Vibrating tube method.

One may read the mass density as mass per unit of volume. On to `CC1CCCC(C)N1` (stereo not given) [2,6-dimethylpiperidine], for which the mass density reads like this: (300.83 K) 816.664 ± 0.24 kg/m3; (304.05 K) 813.975 ± 0.24 kg/m3; (306.72 K) 811.615 ± 0.24 kg/m3; (309.8 K) 809.031 ± 0.24 kg/m3; (313.97 K) 805.478 ± 0.24 kg/m3.

The values above are taken from the NIST ThermoML archive (doi:10.1016/j.fluid.2015.10.027).
